What all share (type): cell-based
In experiment [1] the test system is THP1-Dual KO-TREX1 cells. Nature of the experiment: THP1 TREX1 KO inhibition assay, combination dosing. To be noted: Homo sapiens, THP1-Dual, read-out: EC50 of Stampidine. On the procedure:
Exemplary compounds were tested to determine the effect of combined dosing of two compounds on the type 1 interferon response in THP1 Dual TREX1 KO cells treated with 5-aza-2′-deoxycytidine. Assay procedures and results are described below.
THP1 Dual TREX1 KO cells were purchased from InvivoGen. The THP1-Dual™ KO-TREX1 cells were cultured in RPMI 1640, 10% heat-inactivated fetal bovine serum, 25 mM HEPES, 10 μg/mL blasticidin, and 100 μg/mL Zeocin. THP1-Dual™ KO-TREX1 cells were treated with a dose titration of test compound in the presence of 1 μM 5-aza-2′-deoxycytidine (Sigma, cat #189825). Type 1 Interferon and cell viability were assessed after five days of treatment.
Stock solution of test compounds stampidine and Compound 2 were prepared in DMSO followed by a three-fold dilution in DMSO. The plate was prepared with a matrix of test compound concentrations, with stampidine on the y-axis (final concentrations 3 μM to 0.0003 μM) and Compound 2 on the x-axis (final concentrations 0.3 μM to 0.00003 μM). Additional 50× dilution was prepared in cell culture media for each dilution. 10 μL of diluted test compound was then added to a 384-well plate.
THP1-Dual™ KO-TREX1 cells were treated with 1 μM 5-aza-2′-deoxycytidine. THP1-Dual™ KO-TREX1 cells (50 μL) were added to each well of the 384-well plate containing test compound titration at 10,000 cells/well. Cells were incubated at 37° C., 5% CO2 in a humidified incubator for five days. On day five, 20 μL of cell supernatant was transferred to a 384-well, white-walled plate, followed by addition to each well of 50 μL of QUANTI-LUC solution containing stabilizer. Luminescence was detected on a plate reader according to manufacturer's instructions. Percent inhibition of interferon was calculated using the following analysis: (Average DMSO-Sample)/(Average DMSO-Average 30 μM stampidine)*100.
The remaining cells were assessed for cell viability by adding 30 μl of CellTiter-Glo (Promega, G9683) solution to each well, and placed on a shaker for 10 minutes at room temperature. Luminescence was detected on a plate reader, according to manufacturer's instructions. Percent inhibition of cell viability using CellTiter-Glo was calculated using the following analysis: (Average DMSO−Sample)/(Average DMSO−Average 20 μM viability control reagent)*100.
Combination analysis was performed using the Bivariate Response to Additive Interacting Doses (BRAID) according to Twarog, N. R., et al. Scientific Reports 6:25523 (DOI: 10.1038/srep25523). The best BRAID fit was determined to be k 2.00 (0.583-3.64), where k>0 denotes synergy, k=0 denotes additivity, and k<0 denotes antagonism. Potentiation modeling curves are provided for potentiation of Compound 2 at four concentrations of stampidine (FIG. 7A) and for potentiation of stampidine at four concentrations of Compound 2 (FIG. 7B).

The test system of experiment [2] is SDH-A (succinate dehydrogenase-A). Nature of the experiment: Mitochondria toxicity assay with PC3 cells, in-cell ELISA SDH-A. As to conditions: 5 days treatment. In short, it runs like this:
(§1)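 This in-cell ELISA was run on fixed, permeabilized PC3 cells after 5-day exposure to titrated compound, with cytotoxicity measured on a duplicate plate. Results are reported as categories A (<1.0 μM) to E (>100.0 μM).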

For experiment [3], the system named is THP1-Dual KO-TREX1 cells. The experiment in a line: THP1 TREX1 KO inhibition assay (type 1 interferon response). As to conditions: Homo sapiens, 144 h, type 1 interferon (QUANTI-LUC), 1 μM 5-aza-2′-deoxycytidine, six days. In short, it runs like this: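 THP1-Dual KO-TREX1 cells were treated with a dose titration of compound, alone or with 1 μM 5-aza-2′-deoxycytidine, for six days at 37 °C. Type 1 interferon was read as secreted luciferase (QUANTI-LUC) in the supernatant, and viability by CellTiter-Glo luminescence.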

The subject of the next experiment is PC3 cells. Nature of the experiment: Mitochondria toxicity assay with PC3 cells, cytotoxicity (Cell Titer Glo). To be noted: Homo sapiens, PC-3, 120 h, 5 days treatment. In short, it runs like this: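 PC3 cells in F-12K with 10% FBS exposed to a compound dose titration for 5 days at 37° C, 5% CO2. Viability by Cell Titer Glo luminescence after 30 min at room temperature; values binned A (<1.0 μM) to E (>100.0 μM).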

Experiment [4] in a line: Mitochondria toxicity assay with PC3 cells, in-cell ELISA COX-1. To be noted: 5 days treatment. In short, it runs like this:
as §1

The next experiment relates to human PBMC. Nature of the experiment: Decitabine-stimulated human PBMC assay. As to conditions: PBMCs, anti-CD3/anti-CD28, decitabine 10 μM, 5 days; FIGS. 3A and 3B. On the procedure:
EasySep buffer (32 mL, […] Technologies, cat. #20144) was used to dilute 8 mL of LRSC buffy coat (from fresh Leukopak) with gentle mixing. The diluted buffy coat (20 mL) was transferred into each of two SepMate 50 tubes, and the tubes were filled with 15 mL of Lyphoprep ([…], cat. #07851) density gradient. The SepMate tubes were then centrifuged at 1200 G for 10 minutes at room temperature with the brake on. The top layer of supernatant was collected in SepMate tubes by quickly pouring it into a new 50 mL conical tube. The PBMCs were washed with EasySep buffer×2 by centrifuging at 300 G for 5 minutes. The cells were resuspended in 30 mL of EasySep and centrifuged at 100 G for 5 minutes with the brake off, and the platelets were removed. The cells were then resuspended in 6 mL of 1×RBC lysis buffer (Invitrogen) and incubated at 37° C. for 5 minutes. 25 mL of EasySep buffer was then mixed into the tube and centrifuged at 300 G for 5 minutes. The cells were resuspended in 10 mL of EasySep buffer and the cells were then counted with Cellometer (AO/PI). The PBMCs were resuspended in RPMI1640 (ThermoFisher)+ 10% FBS (HyClone)+μ/s at 3×10^6/mL. The PBMCs (100 μL, 300 k PBMCs) were then seeded in a 96-well flat bottom microplate (Corning) that had been precoated with 100 μL of anti-CD3 antibody (10 μg/mL in PBS, Biolegend) or PBS at 4° C., one day before the assay was commenced.
To each well the following solutions were added 1) 100 μL of cells (final cell number per well is 3×10^5 cell/well); 2) 25 μL of anti-CD28 antibody at 6× (5 μg/mL final concentration, Biolegend); 3) 25 μL of decitabine at 6× (10 μM final concentration); and 4) Compound in DMSO was dispensed directly into each well with a d300e digital dispenser (Tecan). The final concentration of DMSO for each well was normalized to 0.3%. The plate was incubated at 37° C. without any agitation for 5 days. Samples were collected 120 hours after incubation to determine IFN-β […] levels using a U-PLEX Human IFN-β Assay Sector (5PL) (MSD, cat. #K151VIK-2).
After 5 days, the plate was spun down at 100×G for 5 minutes. Supernatants (100 μL) were collected for interferon R (IFN-0) analysis using the MSD assay noted above, and any residual supernatant was stored at −80° C.

Read-outs that look alike come from different tables or passages of the source.

On to `COC(=O)C(C)NP(=O)(OC[C@@H]1C=C[C@H](n2cc(C)c(=O)[nH]c2=O)O1)Oc1ccc(Br)cc1` (stereo partly drawn) [Stampidine, stampidine, reference compound], for which the concentration for a half-maximal effect (EC50) with THP1-Dual KO-TREX1 cells [1] (Compound 2 0 μM) is 115 nM; in the experiment with THP1-Dual KO-TREX1 cells [1] (Compound 2 0.0001 μM), 103 nM; in the experiment with THP1-Dual KO-TREX1 cells [1] (Compound 2 0.001 μM) it was 80 nM; in the experiment with THP1-Dual KO-TREX1 cells [1] (Compound 2 0.01 μM), 29 nM.

Turning to `C#C[C@]1(CO)O[C@@H](n2cnc3c(N)nc(F)nc32)C[C@@H]1O` [Compound 23, (2R,3S,5R)-5-(6-amino-2-fluoro-9H-purin-9-yl)-2-ethynyl-2-(hydroxymethyl) tetrahydrofuran-3-ol], the IC50 is 50000 to 100000 nM in experiment [2], > 1000 nM in the experiment with THP1-Dual KO-TREX1 cells [3], 10000 to 50000 nM with PC3 cells and 10000 to 50000 nM in experiment [4]. In the experiment on human PBMC, the IFN-β production result is “activated production of IFN-β”.

These data come from patent publication US12187758B2 (ROME Therapeutics, Inc., priority 2022, dated 2025).
